# Measurements published in ChEMBL document CHEMBL3112478, “Total synthesis of thiaplakortone a: derivatives as metabolically stable leads for the treatment of malaria” (ACS Med Chem Lett, 2014).
# Assays:
# [1] = Selectivity index, ratio of IC50 for human NFF to IC50 for chloroquine and mefloquine-resistant Plasmodium falciparum Dd2
# [2] = Selectivity index, ratio of IC50 for human NFF to IC50 for chloroquine-sensitive Plasmodium falciparum 3D7
# Plasmodium falciparum [3] = assay: Antimalarial activity against chloroquine-sensitive Plasmodium falciparum 3D7 assessed as growth inhibition; type: functional, organism-based
# Plasmodium falciparum [4] = assay: Antimalarial activity against chloroquine and mefloquine-resistant Plasmodium falciparum Dd2 assessed as growth inhibition; type: functional
# [5] = Intrinsic clearance in mouse liver microsomes at 1 uM after 60 mins by LC-MS/MS analysis; type: ADME, Microsome; conditions: read-out: CLH
# Plasmodium falciparum [6] = assay: Antimalarial activity against chloroquine and mefloquine-resistant Plasmodium falciparum Dd2 assessed as [3H]-hypoxanthine incorporation after 48 hrs by liquid scintillation counting analysis; type: functional
# [7] = Solubility of the compound in phosphate buffered saline under acidic condition; type: physicochemical; conditions: buffer
# NFF = assay: Cytotoxicity against human NFF after 72 hrs by SRB assay; type: cell-based
# Mus musculus [8] = assay: Toxicity in Swiss mouse assessed as ruffled coat at 8 mg/kg administered for 4 days; type: organism-based; set-up: dose 8 mg/kg; conditions: in vivo, 96 h
# [9] = Solubility of the compound in phosphate buffered saline under neutral condition; type: physicochemical; conditions: buffer
# Mus musculus [10] = assay: Toxicity in Swiss mouse assessed as ruffled coat at 16 mg/kg measured up to 2 hrs post compound administration; type: organism-based; set-up: dose 16 mg/kg; conditions: in vivo
# Mus musculus [11] = assay: Toxicity in Swiss mouse assessed as whole body tremor at 8 mg/kg administered for 4 days measured after 1 to 2 hrs of each dose; type: organism-based; set-up: dose 8 mg/kg; conditions: in vivo
# Plasmodium falciparum [12] = assay: Antimalarial activity against chloroquine-sensitive Plasmodium falciparum 3D7 assessed as [3H]-hypoxanthine incorporation after 48 hrs by liquid scintillation counting analysis; type: functional, organism-based
# [13] = Half life in human liver microsomes at 1 uM after 60 mins by LC-MS/MS analysis; type: ADME
# Mus musculus [14] = assay: Toxicity in Swiss mouse assessed as lethargy at 16 mg/kg measured up to 2 hrs post compound administration; type: organism-based; set-up: dose 16 mg/kg; conditions: in vivo
# [15] = Half life in mouse liver microsomes at 1 uM after 60 mins by LC-MS/MS analysis; type: ADME, Microsome
# Mus musculus [16] = assay: Toxicity in Swiss mouse assessed as whole body tremor at 16 mg/kg measured up to 2 hrs post compound administration; type: organism-based; set-up: dose 16 mg/kg; conditions: in vivo
# [17] = Selectivity ratio of IC50 for chloroquine-sensitive Plasmodium falciparum 3D7 to IC50 for chloroquine and mefloquine-resistant Plasmodium falciparum Dd2; type: functional
# [18] = Intrinsic clearance in human liver microsomes at 1 uM after 60 mins by LC-MS/MS analysis; type: ADME; conditions: read-out: CLH
# Mus musculus [19] = assay: Toxicity in Swiss mouse assessed as whole body tremor at 4 to 8 mg/kg measured up to 15 mins post compound administration; type: organism-based; set-up: dose 4-8 mg/kg; conditions: in vivo, 0.25 h
# Mus musculus [20] = assay: Toxicity in Swiss mouse assessed as panting at 4 to 8 mg/kg measured up to 15 mins post compound administration; type: organism-based; set-up: dose 4-8 mg/kg; conditions: in vivo, 0.25 h
# Mus musculus [21] = assay: Toxicity in Swiss mouse assessed as whole body tremor at 4 to 8 mg/kg; type: organism-based; set-up: dose 4-8 mg/kg; conditions: in vivo
# Mus musculus [22] = assay: Toxicity in Swiss mouse assessed as orange urine at 4 to 8 mg/kg; type: organism-based; set-up: dose 4-8 mg/kg; conditions: in vivo
# Mus musculus [23] = assay: Toxicity in Swiss mouse assessed as swollen conjuctiva of eyes at 4 to 8 mg/kg; type: organism-based; set-up: dose 4-8 mg/kg; conditions: in vivo
# Mus musculus [24] = assay: Toxicity in Swiss mouse assessed as difficulty in movement at 4 to 8 mg/kg; type: organism-based; set-up: dose 4-8 mg/kg; conditions: in vivo
smiles,measurement,setting,value
Cl.NCCc1c[nH]c2c1C(=O)C1=C(NC=CS1(=O)=O)C2=O,Ratio IC50,[1],60
same,Ratio IC50,[2],14
same,IC50,Plasmodium falciparum [3],51 nM
same,IC50,Plasmodium falciparum [4],6.6 nM
same,microsomal CLint at 1 µM,[5],68 µL/min/mg
same,IC50,Plasmodium falciparum [6],24 nM
same,solubility,[7],soluble
same,IC50,NFF,1500 nM
same,Activity,Mus musculus [8],Toxic
same,solubility,[9],soluble
same,Activity,Mus musculus [10],Toxic
same,Activity,Mus musculus [11],Toxic
same,IC50,Plasmodium falciparum [12],104 nM
same,half-life at 1 µM,[13],0.617 h
same,Activity,Mus musculus [14],Toxic
same,half-life at 1 µM,[15],0.417 h
same,Activity,Mus musculus [16],Toxic
same,Ratio IC50,[17],4.3
same,microsomal CLint at 1 µM,[18],46 µL/min/mg
Cl.Cn1cc(CCN)c2c1C(=O)C1=C(C2=O)S(=O)(=O)C=CN1,Ratio IC50,[1],40
same,Ratio IC50,[2],18
same,microsomal CLint at 1 µM,[5],< 7 µL/min/mg
same,IC50,Plasmodium falciparum [6],57 nM
same,solubility,[7],soluble
same,IC50,NFF,2310 nM
same,solubility,[9],soluble
same,Activity,Mus musculus [19],Toxic
same,IC50,Plasmodium falciparum [12],128 nM
same,half-life at 1 µM,[13],> 4.17 h
same,half-life at 1 µM,[15],> 4.17 h
same,Activity,Mus musculus [20],Toxic
same,Ratio IC50,[17],1.7
same,microsomal CLint at 1 µM,[18],< 7 µL/min/mg
CNCCc1cn(C)c2c1C(=O)C1=C(NC=CS1(=O)=O)C2=O.Cl,Ratio IC50,[1],29
same,Ratio IC50,[2],17
same,Activity,Mus musculus [21],Toxic
same,microsomal CLint at 1 µM,[5],< 7 µL/min/mg
same,IC50,Plasmodium falciparum [6],79 nM
same,solubility,[7],soluble
same,IC50,NFF,2310 nM
same,Activity,Mus musculus [22],Toxic
same,solubility,[9],soluble
same,IC50,Plasmodium falciparum [12],137 nM
same,half-life at 1 µM,[13],> 4.17 h
same,half-life at 1 µM,[15],> 4.17 h
same,Activity,Mus musculus [23],Toxic
same,Activity,Mus musculus [24],Toxic
same,Ratio IC50,[17],1.7
same,microsomal CLint at 1 µM,[18],< 7 µL/min/mg
CCN(CC)CCCC(C)Nc1ccnc2cc(Cl)ccc12 (configuration not stated) [CHLOROQUINE],IC50,NFF,45900 nM
CNCCc1c[nH]c2c1C(=O)C1=C(NC=CS1(=O)=O)C2=O.Cl,Ratio IC50,[1],31
same,Ratio IC50,[2],9
same,microsomal CLint at 1 µM,[5],11 µL/min/mg
same,IC50,Plasmodium falciparum [6],47 nM
same,solubility,[7],soluble
same,IC50,NFF,1480 nM
same,solubility,[9],soluble
same,IC50,Plasmodium falciparum [12],160 nM
same,half-life at 1 µM,[13],1.67 h
same,half-life at 1 µM,[15],2.52 h
same,Ratio IC50,[17],3.4
same,microsomal CLint at 1 µM,[18],17 µL/min/mg
Cn1cc(CCN)c2c1C(=O)C1=C(NC=CS1(=O)=O)C2=O,Ratio IC50,[1],81
same,Ratio IC50,[2],32
same,IC50,Plasmodium falciparum [6],162 nM
same,IC50,NFF,13200 nM
same,IC50,Plasmodium falciparum [12],416 nM
